{
  "source": "patent US7470669B2",
  "about": "“Isolated polypeptide comprising a leptin fragment” (Serono Genetics Institute, S.A., priority 1999, dated 2008)",
  "key": {"[1]": {"test_system": "db/db mice", "experiment": "Postprandial plasma TG response after high-fat test meal in db/db mice", "format": "in vivo, mouse", "method": "(§1) FIGS. 1A and 1B show the effect of leptin on postprandial plasma TG response in db/db and db^Pas/db^Pas mice. Overnight-fasted db/db (A), db^Pas/db^Pas (B) mice were gavage-fed a high-fat test meal and immediately injected intravenously (db/db) or intraperitoneally (db^Pas/db^Pas) with saline (open symbols) or 50 μg mouse recombinant leptin (closed symbols). At the indicated times, blood was collected from the tail (A) or orbital (B) vein, plasma was separated by centrifugation, and plasma TG concentrations were determined using an enzymatic kit. Each point represents the mean±SEM (db/db: saline, n=4, leptin, n=3; db^Pas/db^Pas: saline, n=6, leptin, n=7). The average plasma lipid response in 10 control C57BL6 mice is shown as a dotted line in both A and B. In a separate experiment, shown as an inset for each strain of mice, overnight fasted db/db (●) or db^Pas/db^Pas (▪) mice were gavage-fed the test meal and immediately injected intravenously with increasing concentrations of leptin. The plasma lipid response was then measured as in A and B. The area under the response curve (AUC) was then calculated using a triangulation method on Microsoft Excel between 0 and 4 hr (mg TG·h/mL). Values are presented as % of control value (test meal alone obtained in A or B). Each point represents the mean of at least 3 mice.\nMice that were fasted for 2-3 hours were gavage-fed 300 μL of a test meal consisting of 60% fat (37% saturated, 27% mono-, and 36% polyunsaturated fatty acids), 20% protein and 20% carbohydrate, and providing 56 kcal of energy/kg (1.5 g butter, 1.5 g sunflower oil, 2.5 g nonfat dry milk, 2.5 g sucrose and 3 ml water). Immediately after the meal, the animals were injected intravenously (db/db) or intraperitoneally (db^Pas/db^Pas) with either 200 μL physiological saline or 200 μL of the same solution containing recombinant mouse leptin. […] TG concentrations were determined using a commercially available enzymatic kit with controls included in each assay (Precinorm L, Roche-Boehringer Mannheim; Lyotrol N, BioMérieux). […]"}, "[2]": {"test_system": "db^Pas/db^Pas mice", "experiment": "Postprandial plasma TG response after high-fat test meal in db^Pas/db^Pas mice", "format": "in vivo, mouse", "method": "as §1\nFIGS. 7A and 7B show a comparison of the effect of human and mouse leptin on LSR activity in rat hepatocytes and on postprandial increase in plasma TG in db^Pas/db^Pas mice. For FIG. 7A, primary cultures of rat hepatocytes were incubated 30 min at 37° C. without (open bar) or with 10 ng/mL recombinant human (solid bar) or mouse (hatched bar) leptin in Buffer A. Oleate (0.5 mM) and ^125I-LDL (20 μg/mL) were added and the cells were incubated 2 h at 37° C. The media were removed and were analyzed for TCA-soluble degradation products. The mean of duplicate determinations is shown. For FIG. 7B, db^Pas/db^Pas mice were given a test meal as previously described, followed immediately by injection i.p. of saline (open bar, n=4), human leptin (1 μg/animal; solid bar, n=3) or mouse leptin (0.25 μg/animal; hatched bar; n=3). The data represent the difference in TG concentrations measured at t=0 and the average of the concentrations at 3 and 4 hours. Results are shown as mean±SEM.\nMice that were fasted for 2-3 hours were gavage-fed 300 μL of a test meal consisting of 60% fat (37% saturated, 27% mono-, and 36% polyunsaturated fatty acids), 20% protein and 20% carbohydrate, and providing 56 kcal of energy/kg (1.5 g butter, 1.5 g sunflower oil, 2.5 g nonfat dry milk, 2.5 g sucrose and 3 ml water). […] TG concentrations were determined using a commercially available enzymatic kit with controls included in each assay (Precinorm L, Roche-Boehringer Mannheim; Lyotrol N, BioMérieux)."}, "[3]": {"test_system": "rat LSR", "experiment": "Ligand blot of 125I-leptin on partially purified rat LSR", "format": "binding", "conditions": "200 ng/mL 125I-leptin", "method": "Aliquots (72 μg) of partially purified rat liver LSR were separated on a 4%-12% SDS-gradient polyacrylamide gel, and transferred to nitrocellulose as described previously (Yen F. T., Masson M., Clossais-Besnard N., Andre P., Grosset J. M., Bougueleret L., Dumas J. B., Guerassimenko, O., and Bihain B. E. (1999). J Biol Chem 274, 13390-13398) a gel strip stained with Coomassie blue is shown in lane 1. The nitrocellulose strips were washed, blocked, and incubated with anti-rat LSR protein antiserum (1:1000 dilution) (lane 2), or with 200 ng/mL ^125I-leptin (lane 3). The strips were washed and bands were detected as described herein. Image analysis of lane 3 was performed on a Phosphorimager (Molecular Dynamics).\nPartially purified rat LSR (240 kDa band complex) was obtained as described previously (Yen F. T., Masson M., Clossais-Besnard N., Andre P., Grosset J. M., Bougueleret L., […] Dumas J. B., Guerassimenko, O., and Bihain B. E. (1999). J Biol Chem 274, 13390-13398.) The band was separated on non-denaturing 4-12% gradient SDS polyacrylamide gel, and was transferred to nitrocellulose by semi-dry transfer (Biorad, 18 V, […]). […]"}, "[4]": {"conditions": "250 ng leptin per animal, AUC 0-4 h"}, "[5]": {"conditions": "500 ng leptin per animal (maximum effect)"}},
  "data": [
    {"substance": "leptin: plasma protein of 16 kDa produced by adipocytes; recombinant human or mouse leptin, species depends on the experiment", "values": [
      {"measurement": "area under the TG curve", "setting": "[1]; [4]", "value": "significant reduction"},
      {"measurement": "decrease of the area under the postprandial TG curve", "setting": "[1]; [5]", "value": "> 80", "unit": "%"},
      {"measurement": "amplitude of the triglyceride response", "setting": "[1]; single bolus 50 μg mouse recombinant leptin i.v. at time of test meal", "value": "decreased the amplitude of the triglyceride response"},
      {"measurement": "area under the TG curve", "setting": "[2]; [4]", "value": "significant reduction"},
      {"measurement": "decrease of the area under the postprandial TG curve", "setting": "[2]; [5]", "value": "> 65", "unit": "%"},
      {"measurement": "amplitude of the triglyceride response", "setting": "[2]; single bolus 50 μg mouse recombinant leptin i.p. at time of test meal", "value": "decreased the amplitude of the triglyceride response"},
      {"measurement": "binding of 125I-leptin to partially purified rat LSR multimeric complexes", "setting": "[3]", "value": "bound"}
    ]}
  ]
}
